Assay [1] concerns rRNA. Kind of assay: rRNA methylation by Erm E in the presence of erythromycin. The class given is biochemical. To be noted: erythromycin 200 μM. The procedure:
Erm E is inhibited by erythromycin (FIG. 21). Erythromycin inhibits enzyme activity most noticably when the RNA is folded in the presence of erythromycin (FIG. 21). One embodiment of the invention may therefore involve folding of the RNA in the presence of compound before measuring the activity of the methyltransferase on the RNA.
The reaction was performed in 50 μl 50 mM Tris/Cl, pH 7.5, 4 mM MgCl2, 40 mM KCl, 10 mM DTT, for 120 min at 37° C. with 0.04 μM rRNA and 6 μCi [3H]SAM. The erythromycin concentration was 200 μM.

Assay [2] deals with tsr methyltransferase (thiostrepton resistance methyltransferase). The experiment in a line: Inhibition of tsr methyltransferase methylation of mGAR (GTPase activating region of 23S rRNA): [3H]SAM incorporation, mGAR titration, 96-well (FIG. 7). It is filed as biochemical, Streptomyces azureus. To be noted: compounds at 50 μM, 25° C., 30 min, increasing mGAR, Ki=[I]/((Km(I)/Km)−1), tsr gene cloned, overexpressed in E. coli, read-out: TSR methyltransferase (GAR RNA methylation) Ki. The procedure: The Km for each titration is determined by fitting the data to the equation
Bmax: incorporation at RNA substrate saturation in cpm.
[RNA]: concentration of target RNA.
The Ki value for a compound is determined by relating the Km in the presence and the Km in the absence of compound using the equation:
[I]: concentration of the inhibitory compound
Km(I): Michaelis constant in the presence of inhibitor
Km: Michaelis constant in the absence of inhibitor
In an preferred format, enzyme binding and activity is measured by measuring the Michealis constant (Km) of the enzymatic reaction in the absence and presence of a constant concentration of the test compound. Increasing amounts of target RNA are incubated with the modifying enzyme and the yield of modified RNA product is measured for each point. Data from this substrate titration are fitted to a saturation curve by non-linear regression. The Michaelis constant Km is determined from the curve-fitting by routine methods. […]
RNA (0-2 μM) was incubated in 25 mM HEPES-KOH, pH 7.5, 25 mM NH4Cl, 5 mM MgCl2, 5 mM DTT with test compounds. […] 50 μl scintillation cocktail (Wallac Optiszint) was added to each well of the dried filter plate and incorporated [^3H]-radioactivity was determined in a Wallac Trilux scintillation counter. […]

The test system of assay [3] is E. coli GAR. Kind of assay: TSR methyltransferase methylation of GAR RNA with [3H]SAM, titration of inhibitor. It is filed as biochemical. To be noted: 23S (or GAR), competition with methyltransferase at A-1067; FIG. 6; read-out: affinity (binding measured by following inhibition of methylation). Here is the method:
RNA (0-2 μM) was incubated in 25 mM HEPES-KOH, pH 7.5, 25 mM NH4Cl, 5 mM MgCl2, 5 mM DTT with test compounds. The methylation reaction was started by adding 8 pmol TSR methyltransferase and 1 μCi [^3H]SAM (Amersham-Pharmacia). The final assay volume was 100 μl. The reaction was incubated 15 min at 25° C. and stopped by adding 1 vol. 2% TFA. The TFA precipitate was filtered through a 96-well glassfiber filterplate (Millipore Multiscreen FB 1.0 μM Glass Fiber Type B Filter). The filters were washed with 2 vol. of 2% TFA. 50 μl scintillation cocktail (Wallac Optiszint) was added to each well of the dried filter plate and incorporated [^3H]-radioactivity was determined in a Wallac Trilux scintillation counter.
The L11 ribosomal protein is an integral part of the GAR, and its presence inhibits methyltransferase activity [Bechthold & Floss, 1994]. Various concentrations of L11 were incubated with E. coli GAR and [^3H]SAM as described above. As expected, methylation was inhibited as L11 concentration increased.
Methyltransferase and thiostrepton thus compete for binding at A-1067, and binding of thiostiepton to 23S (or GAR) can be measured by following inhibition of methylation.

Assay [4] relates to mGAR. Kind of assay: Inhibition of tsr methylation activity by test compounds in 96 well plate, mGAR titration. The class given is biochemical. Conditions: compound at 50 μM, 25° C., 30 minutes, increasing amounts of mGAR; FIG. 7. Here is the method: The Ki value for a compound is determined by relating the Km in the presence and the Km in the absence of compound using the equation: […]
In an preferred format, enzyme binding and activity is measured by measuring the Michealis constant (Km) of the enzymatic reaction in the absence and presence of a constant concentration of the test compound. Increasing amounts of target RNA are incubated with the modifying enzyme and the yield of modified RNA product is measured for each point. Data from this substrate titration are fitted to a saturation curve by non-linear regression. The Michaelis constant Km is determined from the curve-fitting by routine methods.
Test compounds were assayed in a 96 well plate for inhibition of tsr methylation activity at 50 μM. Compounds were incubated at 25° C. for 30 minutes in the presence of [^3H]SAM and enzyme, and increasing amounts of mGAR were added. RNA was precipitated with 2% TFA, filtered, and scintillation counted in a Wallac Trilux instrument.

What is called Ki is a measure of affinity in units of concentration, obtained from inhibition or displacement.

On to `CC[C@H]1OC(=O)[C@H](C)[C@@H](O[C@H]2C[C@@](C)(OC)[C@@H](O)[C@H](C)O2)[C@H](C)[C@@H](O[C@@H]2O[C@H](C)C[C@H](N(C)C)[C@H]2O)[C@](C)(O)C[C@@H](C)C(=O)[C@H](C)[C@@H](O)[C@]1(C)O` [erythromycin], for which the “refolded rRNA methylation by Erm E” value in assay [1] (refolded rRNA 0.04 μM, 120 min at 37° C., FIG. 21) is “decrease”. In assay [1] (unfolded rRNA), the “effect on rRNA methylation by Erm E” value is “no effect”.

Consider `NC[C@@H]1O[C@H](O[C@H]2[C@@H](O)[C@H](O[C@@H]3[C@@H](O)[C@H](N)C[C@H](N)[C@H]3O[C@H]3O[C@H](CN)[C@@H](O)[C@H](O)[C@H]3N)O[C@@H]2CO)[C@H](N)[C@@H](O)[C@@H]1O` [Neomycin, neomycin], for which the Ki in assay [2] is 9 µM.

With `C=C(NC(=O)C(=C)NC(=O)c1csc(C2=N[C@@H]3c4csc(n4)[C@H]4NC(=O)c5csc(n5)[C@H]([C@](C)(O)[C@@H](C)O)NC(=O)[C@H]5CSC(=N5)/C(=C/C)NC(=O)[C@H]([C@@H](C)O)NC(=O)c5csc(n5)[C@]3(CC2)NC(=O)[C@H](C)NC(=O)C(=C)NC(=O)[C@H](C)NC(=O)[C@H]([C@@H](C)CC)N[C@@H]2C=Cc3c([C@H](C)O)cc(nc3[C@H]2O)C(=O)O[C@@H]4C)n1)C(N)=O` [thiostrepton], the Kd in assay [3] turned out to be 1.1 µM.

Turning to `NC[C@@H]1O[C@H](O[C@H]2[C@@H](O)[C@H](O[C@@H]3[C@@H](O)[C@H](N)C[C@H](N)[C@H]3O[C@H]3O[C@H](CN)[C@@H](O)[C@H](O)[C@H]3N)O[C@@H]2CO)[C@H](N)[C@@H](O)[C@@H]1O` [neomycin], the “inhibition of methyltransferase (methylation)” value in assay [4] is reported as “significant inhibition”.

These data come from patent publication US20020037516A1, “Assay for identification of a test compound” (priority 2000, published 2002).
